Earlier results on one compound are cited in US8163753B2, “2,3-dihydro-6-nitroimidazo (2,1-b) oxazole compounds for the treatment of tuberculosis” (priority 2003, dated 2012).

This data set deals with multi-drug-resistant Mycobacterium tuberculosis. Particulars: literature report; cited from earlier work.

Each structure is given as a SMILES string.

`CCC1Cn2cc([N+](=O)[O-])nc2O1` (stereo not shown) [CGI-17341]: the “bactericidal action to multi-drug-resistant Mycobacterium tuberculosis” value was “has a bactericidal action”.
